ChEMBL document CHEMBL1149873, “Identification of neomycin B-binding site in T box antiterminator model RNA” (Bioorg Med Chem, 2008)
Active and inactive are the calls of the source. The rule behind the calls is not given here.

Columns and labels:
[1] = Binding affinity to T box antiterminator RNA AM1A by FRET
[2] = Induction of tRNA-UCCA binding to T box antiterminator RNA AM1A at 200 uM by FRET method
[3] = Binding affinity to T box antiterminator RNA

NC[C@@H]1O[C@H](O[C@H]2[C@@H](O)[C@H](O[C@@H]3[C@@H](O)[C@H](N)C[C@H](N)[C@H]3O[C@H]3O[C@H](CN)[C@@H](O)[C@H](O)[C@H]3N)O[C@@H]2CO)[C@H](N)[C@@H](O)[C@@H]1O [FRAMYCETIN]
Kd [1]: 8 µM | Activity [2]: Active | Kd [3]: 8 µM
